Measured values reported in PubChem BioAssay (NCI).
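Method: 48-hour compound exposure of cells in 96-well plates, five concentrations, linear interpolation of endpoints. The concentration for full growth arrest is given as TGI.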

What was measured:
Test in all cases: NCI anticancer screen, dose series, 48 h
EKVX NSCLC = tested on: EKVX NSCLC
HL-60(TB) leukemia = tested on: HL-60(TB) leukemia
K-562 leukemia = tested on: K-562 leukemia
LOX IMVI melanoma = tested on: LOX IMVI melanoma
NCI-H522 lung = tested on: NCI-H522 lung
RXF 393 renal = tested on: RXF 393 renal
SF-539 CNS = tested on: SF-539 CNS
SK-MEL-28 melanoma = tested on: SK-MEL-28 melanoma
SNB-19 CNS = tested on: SNB-19 CNS
TK-10 renal = tested on: TK-10 renal

| Compound | TGI (EKVX NSCLC) | TGI (HL-60(TB) leukemia) | TGI (K-562 leukemia) | TGI (LOX IMVI melanoma) | TGI (NCI-H522 lung) | TGI (RXF 393 renal) | TGI (SF-539 CNS) | TGI (SK-MEL-28 melanoma) | TGI (SNB-19 CNS) | TGI (TK-10 renal) |
| --- | --- | --- | --- | --- | --- | --- | --- | --- | --- | --- |
| NC(N)=NS(=O)(=O)c1ccc(NC(=O)c2ccc3nc4ccccc4c(Nc4ccc(S(=O)(=O)N=C(N)N)cc4)c3c2)cc1 | > 100 µM | > 100 µM | > 100 µM | > 100 µM | > 100 µM | > 100 µM | > 100 µM | > 100 µM | > 100 µM | > 100 µM |
| O=C1C=C(c2ccccc2)O/C1=C/C(=O)c1ccc(Cl)cc1 | > 100 µM | 5.38 µM | 33.7 µM | 26.1 µM | 27.7 µM | 34.7 µM | 43.4 µM | 32.9 µM | > 100 µM | 35.3 µM |
| CCNC(=O)C1CCCN1C(=O)C(CCCN=C(N)N)NC(=O)C(CC(C)C)NC(=O)C(Cc1c[nH]c2ccccc12)NC(=O)C(Cc1ccc(O)cc1)NC(=O)C(CO)NC(=O)C(Cc1c[nH]c2ccccc12)NC(=O)C(Cc1cnc[nH]1)NC(=O)C1CCC(=O)N1 (stereo not given) | > 100 µM |  | > 100 µM |  | > 100 µM | > 100 µM | > 100 µM |  | > 100 µM | > 100 µM |
| CCOC(=O)C(NC(=O)CC(C)C)(N1CCN(c2cc3c(cc2F)c(=O)c(C(=O)O)cn3C2CC2)CC1)C(F)(F)F (stereo not given) | 92.8 µM | 26 µM | 42 µM | 35.5 µM | 11.9 µM | 35.8 µM | 34.7 µM | 55.5 µM | > 100 µM | 72.9 µM |
| Cc1cn([C@@H]2C[C@H]2CO)c(=O)[nH]c1=O | > 100 µM | > 100 µM | > 100 µM | > 100 µM | > 100 µM | > 100 µM | > 100 µM | > 100 µM | > 100 µM | > 100 µM |
| c1ccc(/C(=N/Nc2ccccn2)c2ncccn2)cc1 | 5.73 µM | > 100 µM | > 39.8 µM |  | 0.679 µM | > 100 µM | 46 µM | > 78.1 µM | > 100 µM |  |
| NC(=O)C(=CNC(=S)c1ccncc1)C(N)=O | > 100 µM | > 100 µM | > 100 µM | > 100 µM | > 100 µM | > 100 µM | > 100 µM |  | > 100 µM | > 100 µM |
| COC(=O)c1ccc(C=Nc2ccc(S(N)(=O)=O)cc2)cc1 | > 100 µM | > 100 µM |  | > 100 µM |  | > 100 µM | > 100 µM | > 100 µM | > 100 µM | > 100 µM |
| O=c1c(-c2ccc(Cl)cc2)nnc2n(Cc3ccccc3)c3ccccc3n12 | > 100 µM | > 100 µM |  | > 100 µM | > 100 µM | 40.2 µM | 37.9 µM | > 100 µM | 72 µM | 61.8 µM |
| CCCCc1ccc(Nc2nc3c(ncn3COCCO)c(=O)[nH]2)cc1 | > 100 µM | > 100 µM | > 100 µM | > 100 µM | > 100 µM | > 100 µM | > 100 µM |  | > 100 µM | > 100 µM |
| FC(F)(F)c1ccc2nc3n(c2c1)C(c1c(Cl)cccc1Cl)SC3 (stereo not given) | 28.6 µM | 33.2 µM |  | > 100 µM | 29.7 µM | 30.9 µM | 33.1 µM | 29.5 µM | 34 µM | 35.4 µM |
| CCC(=O)Oc1c2ccsc2c(OC(=O)CC)c2ccsc12 | 2.51 µM |  |  |  | 2.06 µM | 2.69 µM | 0.472 µM | 0.353 µM | 1.58 µM | 5.25 µM |
| Brc1cccc(N=NN2CCCC2)c1 | > 100 µM | > 100 µM | > 100 µM | > 100 µM | > 100 µM | > 100 µM | > 100 µM |  | > 100 µM | > 100 µM |
| O=c1oc2cc(O)ccc2c(O)c1C(c1ccc(C(c2c(O)c3ccc(O)cc3oc2=O)c2c(O)c3ccc(O)cc3oc2=O)cc1)c1c(O)c2ccc(O)cc2oc1=O | > 100 µM | > 100 µM | > 100 µM | > 100 µM |  | > 100 µM | > 100 µM | > 100 µM |  | > 100 µM |
| Cc1c2ncccc2cc2oc3ccccc3c(=O)c12 | > 100 µM | > 100 µM | > 100 µM | > 100 µM | > 100 µM | > 100 µM | > 100 µM | > 100 µM |  | > 100 µM |
| CC1(C)OCC2OC3([C@H]4OC(C)(C)O[C@@H]4CO)OC(C)(C)OC3C2O1 (stereo not given in full) | > 100 µM |  | > 100 µM | > 100 µM |  | > 100 µM | > 100 µM | > 100 µM | > 100 µM |  |
| Clc1ccc(OCc2nnc(CCCCCCCCc3nnc(COc4ccc(Cl)cc4)n3Nc3ccccc3)n2Nc2ccccc2)cc1 | > 87.9 µM |  | > 100 µM | 42.6 µM | 34.5 µM | 70.8 µM | 40.1 µM | > 100 µM | > 100 µM | > 100 µM |
| Brc1ccc2c(-c3csc(-c4c[nH]c5cc(Br)ccc45)n3)c[nH]c2c1 | > 100 µM | > 100 µM | > 43.8 µM | > 57.1 µM |  | 77.1 µM | 63.2 µM | > 100 µM | 58.2 µM | > 100 µM |
| C=CCOCCCCC(C(C)=O)C(=O)OC (stereo not given) |  | > 100 µM | > 100 µM | > 100 µM | > 100 µM | > 100 µM | > 100 µM | > 100 µM | > 100 µM | > 100 µM |
| CSc1nc2c(c(=O)n1C)N=C(c1ccccc1)[C@H](C(CC(=O)c1ccccc1)c1ccccc1)C(c1ccccc1)N2 (stereo not given in full) | > 100 µM | > 100 µM | > 100 µM | > 100 µM | > 100 µM | > 100 µM | > 100 µM | > 100 µM | > 100 µM |  |
| Cn1c([O-])nc(-n2cc[n+](C)c2)cc1=O | > 100 µM | > 100 µM | > 100 µM | > 100 µM |  | > 100 µM | > 100 µM | > 100 µM | > 100 µM | > 100 µM |
| O=C(CC1=NCCN1)c1ccccc1 | > 750 µM | > 750 µM | > 750 µM | > 750 µM | > 750 µM | > 750 µM | > 750 µM | > 750 µM | > 750 µM |  |
| COc1ccc(Nc2nc3c([nH]2)c(=O)n(C)c(=O)n3C)cc1 | > 10 µM | > 10 µM | > 10 µM | > 10 µM |  | > 10 µM |  | > 10 µM |  | > 10 µM |
